Data from paper PMC12511196 (European Journal of Clinical Pharmacology, 2025).

Key:
serotonin reuptake = conditions: cited from earlier work
CYP2D6 = conditions: cited from earlier work
[1] = cited from earlier work
[2] = Treatment switch from fluoxetine to an alternative antidepressant (proxy for therapeutic failure) by CYP2D6 phenotype; assay type: in vivo, human; conditions: adult patients; for Switch to alternative antidepressant, Frequency (%): within one year after last fluoxetine measurement
From the text: Consequently, an antidepressant switch was used as a proxy marker for therapeutic failure, regardless of the cause.
IBM SPSS Statistics version 28.0.1.1 (SPSS Inc, Chicago, IL) was used for statistical analysis and graphical presentations. Continuous variables were reported as median (range). The associations between CYP2D6 phenotype and pharmacokinetic measures such as absolute concentrations, C/D ratios and metabolic ratios were examined using Kruskal–Wallis test followed by Bonferroni-corrected Dunn’s test using CYP2D6 NMs as reference group. […] A p value below 0.05 was considered statistically significant.

[3] = cited from earlier work; remark: listed apart in the source

SMILES | Potency as SSRI relative to R-norfluoxetine (serotonin reuptake) | Type of CYP2D6 inhibition (CYP2D6) | Elimination half-life [1] | Switch to alternative antidepressant where genotyping was not performed within the switch period, Frequency (%) ([2]; CYP2D6 IMs (n = 347)) | Switch to alternative antidepressant where genotyping was not performed within the switch period, Frequency (%) ([2]; CYP2D6 NMs (n = 587)) | Switch to alternative antidepressant where genotyping was not performed within the switch period, Frequency (%) ([2]; CYP2D6 PMs (n = 68)) | Switch to alternative antidepressant where genotyping was not performed within the switch period, Frequency (%) ([2]; CYP2D6 UMs (n = 25)) | Switch to alternative antidepressant where genotyping was not performed within the switch period, Frequency (%) ([2]; Total (n = 1027)) | Switch to alternative antidepressant, Frequency (%) ([2]; CYP2D6 IMs (n = 347)) | Switch to alternative antidepressant, Frequency (%) ([2]; CYP2D6 NMs (n = 587)) | Switch to alternative antidepressant, Frequency (%) ([2]; CYP2D6 PMs (n = 68)) | Switch to alternative antidepressant, Frequency (%) ([2]; CYP2D6 UMs (n = 25)) | Switch to alternative antidepressant, Frequency (%) ([2]; Total (n = 1027)) | Distribution to the brain [3]
NCC[C@H](Oc1ccc(C(F)(F)F)cc1)c1ccccc1 [S-norfluoxetine] | approximately 20 times | – | – | – | – | – | – | – | – | – | – | – | – | –
CNCCC(Oc1ccc(C(F)(F)F)cc1)c1ccccc1 (stereo not drawn) [fluoxetine] | – | competitive and reversible inhibitors | one to four | 6.3 | 6.6 | 10.3 | 12.0 | 6.9 | 8.6 | 8.3 | 19.1 | 24.0 | 9.5 | more distributed to the brain than norfluoxetine
NCCC(Oc1ccc(C(F)(F)F)cc1)c1ccccc1 (stereo not drawn) [norfluoxetine] | – | competitive and reversible inhibitors | – | – | – | – | – | – | – | – | – | – | – | –
